Test results from patent US20100204265A1 (priority 2009, published 2010).

What follows are compounds tested on ET (Huh-lucubineo-ET) cell line harboring I389luc-ubi-neo/NS3-3′/ET HCV replicon (assay: Replicon assay (HCV replicon, luciferase readout)). Conditions: Hepatitis C virus.
Type: cell-based
Procedure: A cell line, ET (Huh-lucubineo-ET) is used for screening of compounds for inhibiting HCV RNA dependent RNA polymerase. The ET cell line is stably transfected with RNA transcripts harboring a I389luc-ubi-neo/NS3-3′/ET; replicon with firefly luciferase-ubiquitin-neomycin phosphotransferase fusion protein and EMCV-IRES driven NS3-5B polyprotein containing the cell culture adaptive mutations (E1202G; T1280I; K1846T) (Krieger at al, 2001 and unpublished). The ET cells are grown in DMEM (Dulbeco's Modified Eagle's Medium), supplemented with 10% fetal calf serum, 2 mM Glutamine, Penicillin (100 IU/mL)/Streptomycin (100 μg/mL), 1× nonessential amino acids, and 250 μg/mL G418 (“Geneticin”). They are all available through Life Technologies (Bethesda, Md.). The cells are plated at 0.5−1.0×10^4 cells/well in the 96 well plates and incubated for 24 hrs before adding test compound. The compounds are added to the cells to achieve a final concentration of 0.1 nM to […] and a final DMSO (dimethylsulfoxide) concentration of 0.5%. Luciferase activity is measured 48-72 hours later by adding a lysis buffer and the substrate (Catalog number Glo-lysis buffer E2661 and Bright-Glo luciferase system E2620 Promega, Madison, Wis.). Cells should not be too confluent during the assay. Percent inhibition of replication data is plotted relative to no compound control. Under the same condition, cytotoxicity of the compounds are determined using cell proliferation reagent, WST-1 (Roche, Germany). The compounds showing antiviral activities, but no significant cytotoxicities are chosen to determine EC50 and TC50. For these determinations, a 10 point, 2-fold serial dilution for each compound was used, which spans a concentration range of 1000 fold. EC50 and similarly TC50 values were calculated by fitting % inhibition at each concentration to the following equation:
% inhibition=100%/[(EC50/[I])^b+1]
where b is Hill's coefficient.
For CN(C)C(=O)CNC(=O)c1cn2cc(-c3ccoc3)cc(C(F)(F)F)c2n1 [Compound 249, 6-Furan-3-yl-8-trifluoromethyl-imidazo[1,2-a]pyridine-2-carboxylic acid dimethylcarbamoylmethyl-amide], the EC50 was over 50 µM.
With O=C1NC(=O)C2(CCN(C(=O)c3nc4c(C(F)(F)F)cc(-c5ccoc5)cn4c3Cl)CC2)N1 [Compound 330, 8-(3-Chloro-6-furan-3-yl-8-trifluoromethyl-imidazo[1,2-a]pyridine-2-carbonyl)-1,3,8-triaza-spiro[4.5]decane-2,4-dione] the EC50 was over 50 µM.
O=C(c1nc2c(C(F)(F)F)cc(-c3cn[nH]c3)cn2c1Cl)N1CC=C(c2cc[nH]n2)C1 [Compound 137, [3-Chloro-6-(1H-pyrazol-4-yl)-8-trifluoromethyl-imidazo[1,2-a]pyridin-2-yl]-[3-(1H-pyrazol-3-yl)-2,5-dihydro-pyrrol-1-yl]-methanone] showed an EC50 of over 50 µM.
CCOc1cccnc1C1=CCN(C(=O)c2nc3c(C(F)(F)F)cc(-c4ccoc4)cn3c2Cl)CC1 [Compound 115, (3-Chloro-6-furan-3-yl-8-trifluoromethyl-imidazo[1,2-a]pyridin-2-yl)-(3-ethoxy-3′,6′-dihydro-2′H-[2,4′]bipyridinyl-1′-yl)-methanone] gave an EC50 of 22.5 µM.
O=C(Cc1cccc(F)c1)NCc1cn2cc(-c3ccoc3)cc(C(F)(F)F)c2n1 [Compound 128, 2-(3-Fluoro-phenyl)-N-(6-furan-3-yl-8-trifluoromethyl-imidazo[1,2-a]pyridin-2-ylmethyl)-acetamide] gave an EC50 of 4.83 µM.
With C=Cc1cc(C(F)(F)F)c2nc(C(=O)N3CC=C(c4ncccc4F)CC3)c(Cl)n2c1 [Compound 126, (3-Chloro-8-trifluoromethyl-6-vinyl-imidazo[1,2-a]pyridin-2-yl)-(3-fluoro-3′,6′-dihydro-2′H-[2,4′]bipyridinyl-1′-yl)-methanone] the EC50 was 0.0275 µM.
Work on O=C(Cc1cccs1)NCCc1cn2cc(-c3ccoc3)cc(C(F)(F)F)c2n1 [Compound 274, N-[2-(6-Furan-3-yl-8-trifluoromethyl-imidazo[1,2-a]pyridin-2-yl)-ethyl]-2-thiophen-2-yl-acetamide] yielded an EC50 of over 50 µM.
Work on O=C(c1nc2c(C(F)(F)F)cc(-c3ccoc3)cn2c1Cl)N1CCC(N2CCCCC2=O)CC1 [Compound 114, 1′-(3-Chloro-6-furan-3-yl-8-trifluoromethyl-imidazo[1,2-a]pyridine-2-carbonyl)-[1,4′]bipiperidinyl-2-one] yielded an EC50 of 1.33 µM.
For CC(C)(C)OC(=O)NCCc1cn2cc(-c3ccoc3)cc(C(F)(F)F)c2n1 [Compound 242, [2-(6-Furan-3-yl-8-trifluoromethyl-imidazo[1,2-a]pyridin-2-yl)-ethyl]-carbamic acid tert-butyl ester], the EC50 was over 50 µM.
Work on O=C(c1nc2c(C(F)(F)F)cc(-c3cn[nH]c3)cn2c1Cl)N1CC=C(c2cn[nH]c2)C1 [Compound 135, [3-Chloro-6-(1H-pyrazol-4-yl)-8-trifluoromethyl-imidazo[1,2-a]pyridin-2-yl]-[3-(1H-pyrazol-4-yl)-2,5-dihydro-pyrrol-1-yl]-methanone] yielded an EC50 of 0.596 µM.
Compound COC(=O)C(CCSC)NC(=O)Cc1cn2cc(-c3ccoc3)cc(C(F)(F)F)c2n1 (centres unmarked) [Compound 291, 2-[2-(6-Furan-3-yl-8-trifluoromethyl-imidazo[1,2-a]pyridin-2-yl)-acetylamino]-4-methylsulfanyl-butyric acid methyl ester] has an EC50 of over 50 µM.
Work on COC(=O)CCNC(=O)c1cn2cc(-c3ccoc3)cc(C(F)(F)F)c2n1 [Compound 276, 3-[(6-Furan-3-yl-8-trifluoromethyl-imidazo[1,2-a]pyridine-2-carbonyl)-amino]-propionic acid methyl ester] yielded an EC50 of over 50 µM.
CC(=O)NC(C)C(=O)NCc1cn2cc(-c3ccoc3)cc(C(F)(F)F)c2n1 (centres unmarked) [Compound 244, 2-Acetylamino-N-(6-furan-3-yl-8-trifluoromethyl-imidazo[1,2-a]pyridin-2-ylmethyl)-propionamide] was tested, and the EC50 was over 50 µM.
O=C(c1nc2c(C(F)(F)F)cc(-c3ccoc3)cn2c1Cl)N1CCC(OCC2CC2)CC1 [Compound 175, (3-Chloro-6-furan-3-yl-8-trifluoromethyl-imidazo[1,2-a]pyridin-2-yl)-(4-cyclopropylmethoxy-piperidin-1-yl)-methanone] was tested, and the EC50 was 0.79 µM.
In the case of O=C(c1nc2c(C(F)(F)F)cc(-c3ccoc3)cn2c1CO)N1CC=C(c2ncccc2F)CC1 [Compound 171, (3-Fluoro-3′,6′-dihydro-2′H-[2,4′]bipyridinyl-1′-yl)-(6-furan-3-yl-3-hydroxymethyl-8-trifluoromethyl-imidazo[1,2-a]pyridin-2-yl)-methanone], the EC50 is reported as 1.41 µM.
CCOC1CCN(C(=O)c2nc3c(C(F)(F)F)cc(-c4cn[nH]c4)cn3c2Cl)C1 (centres unmarked) [Compound 181, [3-Chloro-6-(1H-pyrazol-4-yl)-8-trifluoromethyl-imidazo[1,2-a]pyridin-2-yl]-(3-ethoxy-pyrrolidin-1-yl)-methanone] gave an EC50 of 13.5 µM.
CCOCCOC1CCN(C(=O)c2nc3c(C(F)(F)F)cc(-c4cn[nH]c4)cn3c2Cl)C1 (centres unmarked) [Compound 233, [3-Chloro-6-(1H-pyrazol-4-yl)-8-trifluoromethyl-imidazo[1,2-a]pyridin-2-yl]-[3-(2-ethoxy-ethoxy)-pyrrohdin-1-yl]-methanone] was tested, and the EC50 was over 50 µM.
In the case of O=C(c1nc2c(C(F)(F)F)cc(C3=CCNCC3)cn2c1Cl)N1CC=C(c2nccs2)C1 [Compound 218, [3-Chloro-6-(1,2,3,6-tetrahydro-pyridin-4-yl)-8-trifluoromethyl-imidazo[1,2-a]pyridin-2-yl]-(3-thiazol-2-yl-2,5-dihydro-pyrrol-1-yl)-methanone], the EC50 is reported as 2 µM.
O=C(c1nc2c(C(F)(F)F)cc(-c3ccccc3)cn2c1Cl)N1CC=C(c2ncccc2F)CC1 [Compound 124, (3-Chloro-6-phenyl-8-trifluoromethyl-imidazo[1,2-a]pyridin-2-yl)-(3-fluoro-3′,6′-dihydro-2′H-[2,4′]bipyridinyl-1′-yl)-methanone] gave an EC50 of 2.48 µM.
Work on O=C(c1nc2c(C(F)(F)F)cc(-c3cn[nH]c3)cn2c1Cl)N1CC=C(c2ccoc2)C1 [Compound 131, [3-Chloro-6-(1H-pyrazol-4-yl)-8-trifluoromethyl-imidazo[1,2-a]pyridin-2-yl]-(3-furan-3-yl-2,5-dihydro-pyrrol-1-yl)-methanone] yielded an EC50 of 0.268 µM.
CS(=O)(=O)NC1CN(C(=O)c2nc3c(C(F)(F)F)cc(-c4cccnc4)cn3c2Cl)C1 [Compound 142, N-[1-(3-Chloro-6-pyridin-3-yl-8-trifluoromethyl-imidazo[1,2-a]pyridine-2-carbonyl)-azetidin-3-yl]-methanesulfonamide] showed an EC50 of 1.94 µM.
Compound O=C(Cc1cn2cc(-c3ccoc3)cc(C(F)(F)F)c2n1)N1CC=C(c2nccs2)C1 [Compound 186, 2-(6-Furan-3-yl-8-trifluoromethyl-imidazo[1,2-a]pyridin-2-yl)-1-(3-thiazol-2-yl-2,5-dihydro-pyrrol-1-yl)-ethanone] has an EC50 of 5.98 µM.
Work on O=C(c1nc2c(C(F)(F)F)cc(-c3ccoc3)cn2c1C1CC1)N1CC=C(c2ncccc2F)CC1 [Compound 149, (3-Cyclopropyl-6-furan-3-yl-8-trifluoromethyl-imidazo[1,2-a]pyridin-2-yl)-(3-fluoro-3′,6′-dihydro-2′H-[2,4′]bipyridinyl-1′-yl)-methanone] yielded an EC50 of 5.08 µM.
O=C(Cc1cn2cc(-c3ccoc3)cc(C(F)(F)F)c2n1)N1CCCCC1c1ccccc1 (centres unmarked) [Compound 110, 2-(6-Furan-3-yl-8-trifluoromethyl-imidazo[1,2-a]pyridin-2-yl)-1-(2-phenyl-piperidin-1-yl)-ethanone] was tested, and the EC50 was 49 µM.
Compound CC(C)CS(=O)(=O)NCc1cn2cc(-c3ccoc3)cc(C(F)(F)F)c2n1 [Compound 232, 2-Methyl-propane-1-sulfonic acid (6-furan-3-yl-8-trifluoromethyl-imidazo[1,2-a]pyridin-2-ylmethyl)-amide] has an EC50 of over 50 µM.
In the case of O=C(c1nc2c(C(F)(F)F)cc(-c3ccoc3)cn2c1Cl)N1CCC(O)(c2ncccc2F)CC1 [Compound 222, (3-Chloro-6-furan-3-yl-8-trifluoromethyl-imidazo[1,2-a]pyridin-2-yl)-(3-fluoro-4′-hydroxy-3′,4′,5′,6′-tetrahydro-2′H-[2,4′]bipyridinyl-1′-yl)-methanone], the EC50 is reported as 0.624 µM.
Compound O=C(NC(C(=O)O)c1ccccc1)c1cn2cc(-c3ccoc3)cc(C(F)(F)F)c2n1 (centres unmarked) [Compound 271, [(6-Furan-3-yl-8-trifluoromethyl-imidazo[1,2-a]pyridine-2-carbonyl)-amino]-phenyl-acetic acid] has an EC50 of over 50 µM.
Work on CC(=O)NC(Cc1c[nH]c2ccccc12)C(=O)NCc1cn2cc(-c3ccoc3)cc(C(F)(F)F)c2n1 (centres unmarked) [Compound 245, 2-Acetylamino-N-(6-furan-3-yl-8-trifluoromethyl-imidazo[1,2-a]pyridin-2-ylmethyl)-3-(1H-indol-3-yl)-propionamide] yielded an EC50 of over 50 µM.
Compound FC(F)(F)c1cc(-c2ccoc2)cn2cc(Cc3nc(Cc4ccccc4)no3)nc12 [Compound 230, 2-(3-Benzyl-[1,2,4]oxadiazol-5-ylmethyl)-6-furan-3-yl-8-trifluoromethyl-imidazo[1,2-a]pyridine] has an EC50 of over 50 µM.
